Experimental findings from patent US12667614B2, “Bacterial microcompartment virus-like particles” (National University of Singapore, priority 2020, dated 2026) are described below.

In general, kcat refers to the maximal rate divided by the concentration of active sites. In general, Km refers to the concentration of substrate that gives half-maximal velocity.

Holding throughout (type): biochemical
In test [1] the target is T1, Free LacZ (E. coli beta-galactosidase), N-terminal His6, fused to S2CP(30); LacZ-S2CP(30), SEQ ID NO: 103 (Escherichia coli, UniProt P00722).
T1 construct: homotetramer
T1 sequence (P00722 other isoform, or with tags, fused parts or gaps): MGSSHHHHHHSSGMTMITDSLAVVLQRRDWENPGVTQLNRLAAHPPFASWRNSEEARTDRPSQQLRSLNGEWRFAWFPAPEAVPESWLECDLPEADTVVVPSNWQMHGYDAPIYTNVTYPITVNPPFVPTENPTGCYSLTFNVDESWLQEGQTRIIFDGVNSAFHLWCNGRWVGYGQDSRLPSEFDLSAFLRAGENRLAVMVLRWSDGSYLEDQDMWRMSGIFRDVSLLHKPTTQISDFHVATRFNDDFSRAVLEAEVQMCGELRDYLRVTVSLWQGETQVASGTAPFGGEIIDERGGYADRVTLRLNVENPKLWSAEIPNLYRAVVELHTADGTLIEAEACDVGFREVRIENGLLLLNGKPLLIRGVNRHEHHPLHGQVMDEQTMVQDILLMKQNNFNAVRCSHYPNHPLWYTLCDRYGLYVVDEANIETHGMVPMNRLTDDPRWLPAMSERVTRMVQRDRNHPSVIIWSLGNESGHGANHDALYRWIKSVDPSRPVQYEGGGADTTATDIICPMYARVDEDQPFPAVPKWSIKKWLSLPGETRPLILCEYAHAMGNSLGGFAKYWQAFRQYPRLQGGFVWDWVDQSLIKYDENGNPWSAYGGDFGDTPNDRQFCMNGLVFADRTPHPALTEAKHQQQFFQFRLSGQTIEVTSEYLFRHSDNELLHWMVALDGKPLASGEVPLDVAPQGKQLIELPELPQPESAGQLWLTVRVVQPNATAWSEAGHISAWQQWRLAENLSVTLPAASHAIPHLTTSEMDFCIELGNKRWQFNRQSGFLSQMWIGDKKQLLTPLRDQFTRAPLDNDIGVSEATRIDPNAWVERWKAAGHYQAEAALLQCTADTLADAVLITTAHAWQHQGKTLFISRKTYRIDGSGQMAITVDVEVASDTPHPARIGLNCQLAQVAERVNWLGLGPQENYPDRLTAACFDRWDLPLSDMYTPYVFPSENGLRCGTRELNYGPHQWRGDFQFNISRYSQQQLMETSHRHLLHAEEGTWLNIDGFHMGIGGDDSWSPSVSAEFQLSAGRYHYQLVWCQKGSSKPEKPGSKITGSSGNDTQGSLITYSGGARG
As to the kind of experiment: Steady-state kinetics of free LacZ (ONPG hydrolysis). Particulars: free LacZ 10 nM; ONPG 0.050 to 1.5 mM; TBS-50/350 pH 8.0, 1 mM MgCl2; mean with standard error, triplicates. As to the method: (§1) For APEX2, all reagents were made to the appropriate working concentrations using TBS-50/350 pH 8.0. Working solutions of guaiacol and H2O2, both at 10 mM, were prepared on the day of assay. The guaiacol solution was shaken vigorously at 30° C. to ensure complete dissolution before equilibration back to room temperature. The assay concentration for APEX2 was 10 nM, H2O2 1 mM and that for guaiacol ranged from 0.20 to 2.0 mM. Total reaction volume was 200 μL. Reactions were monitored by the absorbance of tetraguaiacol formed at 470 nm using a BioTek Synergy™ HT microplate reader. […] This time point was taken for initial rate, V0, measurement. Kinetic constants were obtained using non-linear least square Michaelis-Menten fitting in GraphPad Prism software.
For steady-state kinetics of LacZ, all reagents were made to the appropriate working concentrations using TBS-50/350 pH 8.0 supplemented with 1 mM MgCl2. Working solutions of ONPG at 10 mM were prepared from a 50 mM stock solution in DMSO on the day of assay. The assay concentration for LacZ was 10 nM and that for ONPG (ortho-nitrophenyl-β-galactoside) ranged from 0.050 to 1.5 mM. Total reaction volume was 100 μL. Hydrolysis of ONPG was tracked by absorbance measurements at 405 nm. […]

In test [2] the target is T2, LacZ + shell: LacZ (E. coli beta-galactosidase), N-terminal His6, fused to S2CP(30), SEQ ID NO: 103, encapsulated in Cso-BMC (Cso-PSIIH) shell (Escherichia coli, UniProt P00722).
T2 construct: homotetramer
T2 sequence (P00722 other isoform, or with tags, fused parts or gaps): as above
As to the kind of experiment: Steady-state kinetics of Cso-BMC encapsulated LacZ (ONPG hydrolysis). As to the method: as §1
For steady-state kinetics of LacZ, all reagents were made to the appropriate working concentrations using TBS-50/350 pH 8.0 supplemented with 1 mM MgCl2. Working solutions of ONPG at 10 mM were prepared from a 50 mM stock solution in DMSO on the day of assay. The assay concentration for LacZ was 10 nM and that for ONPG (ortho-nitrophenyl-β-galactoside) ranged from 0.050 to 1.5 mM. Total reaction volume was 100 μL. Hydrolysis of ONPG was tracked by absorbance measurements at 405 nm.
To probe the capacity of the Cso-BMC for encasing enzymes of considerably different molecular sizes, an evolved pea cytosolic ascorbate peroxidase (APEX2), a 27.0 kDa monomer [Lam et al., Nature Methods 12(1): 51-54 (2015)], and E. coli beta-galactosidase (LacZ), a 466.0 kDa homotetramer, were chosen for encapsulation [Golan, et al., Biochimica et Biophysica Acta (BBA)—Bioenergetics, 1293(2): 238-242; Lam et al., Nature Methods 12(1): 51-54 (2015)]. […] Enzymes were also N-terminally tagged with the hexahistidine (Hiss) tag to facilitate downstream removal of unencapsulated enzymes that might co-purify with shells (Nichols, Kennedy, & Tullman-Ercek, 2019). Cso-PSIIH shells co-expressed with enzymes were constructed and purified. SDS-PAGE analysis and Western blotting confirmed the presence of the target enzymes in shell samples (FIG. 18A-B) and the average copy numbers of enzymes per shell were estimated by Coomassie blue densitometry (Table 8) [Hagen, A., et al., Nature Communications 9: 2881 (2018); Nichols et al., Methods in Enzymology, 617, 155-186 (2019)].
Encapsulation of an enzyme into a protein shell is known to alter the enzyme's catalytic properties in some cases. To probe how encapsulation by the Cso-BMC might affect the catalytic efficiencies of APEX2 and LacZ, we performed steady-state kinetics of both free and encapsulated enzymes and fitted the data to the Michaelis-Menten model to obtain the turnover number (kcat), Michaelis-Menten constant (KM), and catalytic efficiency (kcat/KM) (Table 8, FIG. 19). […]

Test [3] addresses T3, APEX2 + shell: APEX2 (evolved pea cytosolic ascorbate peroxidase), N-terminal His6, fused to S2CP(30), SEQ ID NO: 110, encapsulated in Cso-BMC (Cso-PSIIH) shell (Glycine max, UniProt Q43758, A134P/E112K/K14D/W41F).
T3 sequence (Q43758 with tags, fused parts or gaps A134P/E112K/K14D/W41F): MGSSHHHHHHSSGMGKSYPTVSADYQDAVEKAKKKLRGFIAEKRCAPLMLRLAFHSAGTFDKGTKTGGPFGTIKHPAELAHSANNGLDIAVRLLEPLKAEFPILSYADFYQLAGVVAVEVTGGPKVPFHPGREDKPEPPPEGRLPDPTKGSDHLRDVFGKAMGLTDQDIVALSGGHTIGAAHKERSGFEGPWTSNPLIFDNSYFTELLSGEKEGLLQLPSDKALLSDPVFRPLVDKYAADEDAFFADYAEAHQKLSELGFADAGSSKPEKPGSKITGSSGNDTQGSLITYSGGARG
As to the kind of experiment: Steady-state kinetics of Cso-BMC encapsulated APEX2 (guaiacol oxidation). Particulars: decreased to. As to the method: as §1
To probe the capacity of the Cso-BMC for encasing enzymes of considerably different molecular sizes, an evolved pea cytosolic ascorbate peroxidase (APEX2), a 27.0 kDa monomer [Lam et al., Nature Methods 12(1): 51-54 (2015)], and E. coli beta-galactosidase (LacZ), a 466.0 kDa homotetramer, were chosen for encapsulation [Golan, et al., Biochimica et Biophysica Acta (BBA)—Bioenergetics, 1293(2): 238-242; Lam et al., Nature Methods 12(1): 51-54 (2015)]. […]

The mark [4] stands for this setting: encapsulated LacZ 10 nM, ONPG 0.050 to 1.5 mM, TBS-50/350 pH 8.0, 1 mM MgCl2, mean with standard error, triplicates.

For the molecule `O=[N+]([O-])c1ccccc1O[C@@H]1O[C@H](CO)[C@H](O)[C@H](O)[C@H]1O` [ONPG, ortho-nitrophenyl-β-galactoside], in test [1], the kcat stood at 258 ± 17 s⁻¹ and the kcat/KM is 15.2 ± 2.05 × 10^5 (s^−1 · M^−1). In test [2] (comparison in words with free LacZ), the “kcat/KM of encapsulated LacZ compared with the free enzyme” value is “not significantly different from the free enzyme”. In addition, in test [2] (setting [4]), the Km was 140 ± 20 µM, the kcat was determined as 200 ± 14 s⁻¹ and the kcat/KM is reported as 14.3 ± 2.27 × 10^5 (s^−1 · M^−1).

For the molecule `COc1ccccc1O` [guaiacol], the “kcat/KM of encapsulated APEX2 relative to the free enzyme” value in test [3] is reported as “approximately 30%”.
